Laboratory results from patent publication US11000033B2, “Ketone or oxime compound, and herbicide” (NISSAN CHEMICAL CORPORATION, priority 2014, dated 2021).

Key:
[1] = tested on: Echinochloa crus-galli var. crus-galli; test: Test Example 3: herbicidal effect by foliage application, Wagner pot (symbol H); assay type: in vivo; conditions: application herbicide amount 320 g/ha
Method in brief: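 Alluvial soil was flooded to a depth of 0.1–0.5 cm, seeded with the weeds and rice, and kept in a greenhouse at 25–30 °C. After 14 days of growth, the foliage received a small-sprayer application of emulsion diluted to the intended rate; injury was rated at 3 weeks.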

[2] = tested on: Monochoria vaginalis; test: Test Example 1: herbicidal activity, application before weed generation in submerged conditions (symbol C); assay type: in vivo; conditions: application herbicide amount 320 g/ha
Method in brief: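 Scores run 0 to 5 by herbicidal ratio, with 5 meaning 90% or more and 0 meaning 5% or lower, read 3 weeks after treatment. Compound was applied as a diluted emulsion to the water surface of submerged alluvial-soil pots on the day weed seeds were sown.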

| SMILES | melting point | herbicidal effect on H (Echinochloa crus-galli var. crus-galli), grade 0-5 [1] | Herbicidal effect grade, C: Monochoria vaginalis [2] | H (Echinochloa crus-galli var. crus-galli) herbicidal effect grade ([1]; Table 24) |
| --- | --- | --- | --- | --- |
| CON=C(C)CC1CC(O)=C(c2c(F)cc(-c3ccccc3)cc2OC)C1=O (stereo not drawn) [6-107] | 175 to 177 °C | 5 (Herbicidal ratio of 90% or more (almost completely withered)) | 5 (Herbicidal ratio of 90% or more (almost completely withered)) | – |
| CON=C(C)CC1CC(OC(=O)COc2ccccc2)=C(c2c(C)cc(-c3ccc(Cl)cc3)cc2C)C1=O (mixture of isomers) [6-061] | – | 5 (Herbicidal ratio of 90% or more (almost completely withered)) | 1 (Herbicidal ratio of 5% or higher and lower than 20%) | – |
| COc1cc(Br)cc(F)c1C1=C(O)CC(CC(C)=O)C1=O (stereo not drawn) [7-029] | – | – | 0 (Herbicidal ratio of 5% or lower (almost no effect)) | 3 (Herbicidal ratio of 40% or higher and lower than 70%) |
| CON=C(C)CC1CC(O)=C(c2c(C)cc(Oc3ccccc3)cc2C)C1=O (stereo not drawn) [6-052] | – | 5 (Herbicidal ratio of 90% or more (almost completely withered)) | 0 (Herbicidal ratio of 5% or lower (almost no effect)) | – |
| CON=C(C)CC1CC(OCOC(=O)c2ccccc2)=C(c2c(C)cc(-c3ccc(Cl)cc3)cc2C)C1=O (stereo not drawn) [6-083] | – | 5 (Herbicidal ratio of 90% or more (almost completely withered)) | 4 (Herbicidal ratio of 70% or higher and lower than 90%) | – |
| CON=C(C)CC1CC(OC(=O)COc2ccccc2)=C(c2c(C)cc(-c3ccc(Cl)cc3Cl)cc2C)C1=O (stereo not drawn) [6-092] | – | 5 (Herbicidal ratio of 90% or more (almost completely withered)) | 0 (Herbicidal ratio of 5% or lower (almost no effect)) | – |
| CC(=O)CC1CC(O)=C(c2c(C)cc(-c3ccc(Cl)cc3)cc2C)C1=O (stereo not drawn) [7-008] | – | 5 (Herbicidal ratio of 90% or more (almost completely withered)) | 0 (Herbicidal ratio of 5% or lower (almost no effect)) | – |

Now from value to compound, other results behind:

| melting point | SMILES | herbicidal effect on H (Echinochloa crus-galli var. crus-galli), grade 0-5 [1] | Herbicidal effect grade, C: Monochoria vaginalis [2] | H (Echinochloa crus-galli var. crus-galli) herbicidal effect grade ([1]; Table 24) |
| --- | --- | --- | --- | --- |
| 150 to 153 °C | CON=C(C)CC1CC(O)=C(c2c(C)cc(Br)cc2OC)C1=O (stereo not drawn) [6-076, 2-(4-bromo-2-methoxy-6-methylphenyl)-3-hydroxy-5-{2-(methoxyimino)propyl}cyclopent-2-enone] | 5 (Herbicidal ratio of 90% or more (almost completely withered)) | 2 (Herbicidal ratio of 20% or higher and lower than 40%) | – |
| 141 to 143 °C | CON=C(C)CC1CC(O)=C(c2c(C)cc(OC)cc2C)C1=O (stereo not drawn) [6-055] | 5 (Herbicidal ratio of 90% or more (almost completely withered)) | 0 (Herbicidal ratio of 5% or lower (almost no effect)) | – |
| 157 to 159 °C | CON=C(C)CC1CC(O)=C(c2c(F)cc(Br)cc2OC)C1=O (stereo not drawn) [6-096] | 5 (Herbicidal ratio of 90% or more (almost completely withered)) | 0 (Herbicidal ratio of 5% or lower (almost no effect)) | – |
| 171 to 175 °C | CON=C(C)CC1CC(O)=C(c2c(OC)cc(C)cc2OC)C1=O (stereo not drawn) [6-103] | 5 (Herbicidal ratio of 90% or more (almost completely withered)) | 0 (Herbicidal ratio of 5% or lower (almost no effect)) | – |
| 167 to 170 °C | CON=C(C)CC1CC(O)=C(c2c(C)cccc2C)C1=O (stereo not drawn) [6-112] | 5 (Herbicidal ratio of 90% or more (almost completely withered)) | 0 (Herbicidal ratio of 5% or lower (almost no effect)) | – |
| 170 to 178 °C | CON=C(C)CC1CC(O)=C(c2c(C)cc(C3CC3)cc2C)C1=O (stereo not drawn) [6-050] | 5 (Herbicidal ratio of 90% or more (almost completely withered)) | 0 (Herbicidal ratio of 5% or lower (almost no effect)) | – |
| 175 to 177 °C | CON=C(C)CC1CC(O)=C(c2c(C)cc(-c3ccccc3)cc2OC)C1=O (stereo not drawn) [6-099] | 5 (Herbicidal ratio of 90% or more (almost completely withered)) | 5 (Herbicidal ratio of 90% or more (almost completely withered)) | – |
